Test [1] addresses T1, EGFR with insertion of SVD between D770 and N771 (EGFR ins SVD) (Homo sapiens, UniProt P00533, DUP768-770).
T1 construct: made in house; host or cells: Sf9 insect cells (baculovirus)
Put plainly: Exon20-Mutant-EGFR(D770_N771insSVD) kinase assay (TR-FRET). The format is biochemical. Conditions: 2 mM ATP, several values per example where printed. A general note: In TR-FRET formats the signal depends on donor and acceptor labels being close together.

Test [2] deals with T2, Bub1 (Homo sapiens, UniProt O43683).
T2 construct: catalytic domain of human Bub1 (amino acids 704-1085); His6 (N); made in house; host or cells: Hi5 insect cells
T2 sequence (O43683 704-1085): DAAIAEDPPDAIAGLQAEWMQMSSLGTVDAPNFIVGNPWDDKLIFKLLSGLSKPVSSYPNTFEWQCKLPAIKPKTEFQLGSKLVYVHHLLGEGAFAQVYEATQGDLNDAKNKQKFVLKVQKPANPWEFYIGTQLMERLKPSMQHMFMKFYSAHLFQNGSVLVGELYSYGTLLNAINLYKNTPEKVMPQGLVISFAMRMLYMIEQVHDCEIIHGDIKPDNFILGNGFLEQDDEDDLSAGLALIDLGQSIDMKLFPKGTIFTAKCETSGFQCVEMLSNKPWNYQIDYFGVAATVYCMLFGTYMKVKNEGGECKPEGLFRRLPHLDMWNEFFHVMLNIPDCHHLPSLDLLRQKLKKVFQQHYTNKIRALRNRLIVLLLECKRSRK
Put plainly: Bub1 TR-FRET high ATP kinase assay. The format is biochemical. Conditions: 2 mM ATP. An excerpt:
Bub1 High ATP Kinase Assay
Bub1-inhibitory activity of compounds of the present invention at a high ATP concentration was quantified employing the Bub1 TR-FRET high ATP kinase assay as described in the following paragraphs.
N-terminally His6-tagged recombinant catalytic domain of human Bub1 (amino acids 704-1085), expressed in insect cells (Hi5) and purified by Ni-NTA affinity chromatography and subsequent size exclusion chromatography, was used as enzyme. As substrate for the kinase reaction the biotinylated peptide biotin-Ahx-[…]—SEQ ID 7 (C-terminus in amid form) was used which can be purchased e.g. form the company Biosyntan (Berlin, Germany).

The target in test [3] is Ba/F3-EGFR-insSVD cells (Homo sapiens, UniProt P00533, DUP768-770, cells depend on it). Briefly: Ba/F3 cell survival assay (Cell Titer-Glo), EGFR-insSVD. The format is cell-based. Conditions: without IL-3, with 10 ng/mL EGF, 48 h; read-out: BA/F3 (insSVD) IC50. As for the experimental part:
(§1) 293T cells from ATCC were transfected with pBABEpuro expression constructs for WT EGFR or EGFR-insSVD and pCL-Eco packaging vector using Fugene-6 transfection reagent from Promega. Plates were incubated at 37° C. for 48 h. Retrovirus was harvested by filtering the media supernatant through a 0.45 μm filter.
(§2) Ba/F3 cells purchased from DSMZ were grown in RPMI+10% FBS+10 ng/mL IL-3 and infected with filtered retroviral supernatant at a 1:2 dilution. Polybrene was added to a concentration of 8 μg/mL, plates were spun for 90 min, and incubated overnight at 37° C. 2 μg/mL puromycin was added to the infected cells 24 h after infection and cells were continually grown in the presence of puromycin and 10 ng/mL IL-3. Following stably expressing Ba/F3 cell lines were generated: Ba/F3-EGFR-WT, Ba/F3-EGFR-insSVD, (Ba/F3-vector-control).
(§3) For cell survival assays, Ba/F3 cells were grown to a density of 1-2 million cells per mL, spun down and resuspended in media without IL-3, and replated at a concentration 200,000-500,000 cells per mL. The cells ectopically expressing WT EGFR or EGFR-insSVD were plated with 10 ng/mL Millipore Culture grade EGF. The cells ectopically expressing pBABEpuro empty vector were plated with 10 ng/mL IL-3. 2 days later, cells were plated in 50 μL in a 384 well plate at a concentration of 4000 cells per well for cells assayed in the absence of IL-3 and 2000 cells per well for cells assayed in the presence of IL-3. 100 nL of compound was added to each well using a 100 nL pin head, and plates were incubated at 37° C. for 48 h.
(§4) Cell viability was measured by adding 20 μL of Cell Titer-Glo Luminescent Cell Viability Reagent diluted 1:3 in PBS. Plates were sealed with Perkin Elmer Top-Seal, inverted several times to mix, and immediately centrifuged at 1000 rpm for 2 min. Plates were incubated in low light conditions for 8-10 min and luminescence was measured.

Test [4] deals with Ba/F3-EGFR-WT cells (Homo sapiens, UniProt P00533). Briefly: Ba/F3 cell survival assay (Cell Titer-Glo), WT EGFR. The format is cell-based. As to conditions: without IL-3, with 10 ng/mL EGF, 48 h; read-out: BA/F3 (wild type) IC50. The procedure:
as §1, §2, §3, §4
(In general: In ATP-based viability assays light output follows the ATP content of the culture.)

[5] abbreviates: read-out: Bub1 high ATP (2 mM) IC50 [mol/l].
[6] abbreviates: Bub1 high ATP (2 mM) IC50 [mol/l].

This note sets out measurements from patent US12679836B2, “4H-pyrrolo[3,2-c]pyridin-4-one compounds” (Bayer Aktiengesellschaft, priority 2019, dated 2026).

Where two headings read alike, the source gives them in different places.

T1 sequence (P00533 with tags, fused parts or gaps DUP768-770): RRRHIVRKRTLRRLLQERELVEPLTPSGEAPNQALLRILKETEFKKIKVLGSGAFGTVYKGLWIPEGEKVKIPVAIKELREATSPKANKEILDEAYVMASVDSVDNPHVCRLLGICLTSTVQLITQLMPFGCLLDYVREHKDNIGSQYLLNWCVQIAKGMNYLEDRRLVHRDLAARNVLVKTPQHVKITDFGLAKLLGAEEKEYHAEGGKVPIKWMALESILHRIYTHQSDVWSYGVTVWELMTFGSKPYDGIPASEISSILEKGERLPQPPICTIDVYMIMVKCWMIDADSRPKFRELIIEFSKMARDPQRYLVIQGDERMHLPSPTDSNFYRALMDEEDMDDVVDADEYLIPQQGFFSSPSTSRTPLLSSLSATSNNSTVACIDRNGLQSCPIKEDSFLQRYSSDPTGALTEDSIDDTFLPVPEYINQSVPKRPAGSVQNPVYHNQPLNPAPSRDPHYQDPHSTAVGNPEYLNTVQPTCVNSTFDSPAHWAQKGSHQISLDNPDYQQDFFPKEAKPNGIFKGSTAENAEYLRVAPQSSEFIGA
Chain of Ba/F3-EGFR-WT cells (P00533 whole entry, change not shown): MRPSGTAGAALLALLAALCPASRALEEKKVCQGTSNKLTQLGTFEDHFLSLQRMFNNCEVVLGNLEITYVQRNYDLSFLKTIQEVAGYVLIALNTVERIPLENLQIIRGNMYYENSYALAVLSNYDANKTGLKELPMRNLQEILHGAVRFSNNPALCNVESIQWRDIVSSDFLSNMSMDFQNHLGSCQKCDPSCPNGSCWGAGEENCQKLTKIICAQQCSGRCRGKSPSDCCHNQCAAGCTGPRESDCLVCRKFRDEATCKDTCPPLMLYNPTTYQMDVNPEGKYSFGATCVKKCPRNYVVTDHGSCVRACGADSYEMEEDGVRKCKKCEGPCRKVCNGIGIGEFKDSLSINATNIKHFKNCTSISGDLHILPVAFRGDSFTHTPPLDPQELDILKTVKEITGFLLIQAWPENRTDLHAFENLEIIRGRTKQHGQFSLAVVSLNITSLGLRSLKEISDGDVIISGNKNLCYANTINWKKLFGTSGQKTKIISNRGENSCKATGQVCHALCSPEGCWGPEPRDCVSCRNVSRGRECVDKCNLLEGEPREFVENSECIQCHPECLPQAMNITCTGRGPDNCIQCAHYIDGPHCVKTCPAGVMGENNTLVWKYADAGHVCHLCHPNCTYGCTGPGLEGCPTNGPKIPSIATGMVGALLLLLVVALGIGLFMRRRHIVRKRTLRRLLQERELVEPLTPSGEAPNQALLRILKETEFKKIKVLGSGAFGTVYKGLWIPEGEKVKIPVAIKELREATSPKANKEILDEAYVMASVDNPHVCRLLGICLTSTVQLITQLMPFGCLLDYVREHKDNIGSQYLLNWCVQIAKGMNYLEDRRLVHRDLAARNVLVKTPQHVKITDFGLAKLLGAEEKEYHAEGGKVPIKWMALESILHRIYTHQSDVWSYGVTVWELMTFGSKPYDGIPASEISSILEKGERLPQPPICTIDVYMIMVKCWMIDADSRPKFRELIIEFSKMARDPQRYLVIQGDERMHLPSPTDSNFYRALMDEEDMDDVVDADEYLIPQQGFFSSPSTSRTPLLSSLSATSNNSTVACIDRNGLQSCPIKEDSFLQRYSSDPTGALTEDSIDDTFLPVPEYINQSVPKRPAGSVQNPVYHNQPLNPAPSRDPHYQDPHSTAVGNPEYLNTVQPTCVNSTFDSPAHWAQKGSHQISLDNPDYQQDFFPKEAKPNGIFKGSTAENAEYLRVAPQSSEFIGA
Chain of Ba/F3-EGFR-insSVD cells (P00533 with tags, fused parts or gaps DUP768-770): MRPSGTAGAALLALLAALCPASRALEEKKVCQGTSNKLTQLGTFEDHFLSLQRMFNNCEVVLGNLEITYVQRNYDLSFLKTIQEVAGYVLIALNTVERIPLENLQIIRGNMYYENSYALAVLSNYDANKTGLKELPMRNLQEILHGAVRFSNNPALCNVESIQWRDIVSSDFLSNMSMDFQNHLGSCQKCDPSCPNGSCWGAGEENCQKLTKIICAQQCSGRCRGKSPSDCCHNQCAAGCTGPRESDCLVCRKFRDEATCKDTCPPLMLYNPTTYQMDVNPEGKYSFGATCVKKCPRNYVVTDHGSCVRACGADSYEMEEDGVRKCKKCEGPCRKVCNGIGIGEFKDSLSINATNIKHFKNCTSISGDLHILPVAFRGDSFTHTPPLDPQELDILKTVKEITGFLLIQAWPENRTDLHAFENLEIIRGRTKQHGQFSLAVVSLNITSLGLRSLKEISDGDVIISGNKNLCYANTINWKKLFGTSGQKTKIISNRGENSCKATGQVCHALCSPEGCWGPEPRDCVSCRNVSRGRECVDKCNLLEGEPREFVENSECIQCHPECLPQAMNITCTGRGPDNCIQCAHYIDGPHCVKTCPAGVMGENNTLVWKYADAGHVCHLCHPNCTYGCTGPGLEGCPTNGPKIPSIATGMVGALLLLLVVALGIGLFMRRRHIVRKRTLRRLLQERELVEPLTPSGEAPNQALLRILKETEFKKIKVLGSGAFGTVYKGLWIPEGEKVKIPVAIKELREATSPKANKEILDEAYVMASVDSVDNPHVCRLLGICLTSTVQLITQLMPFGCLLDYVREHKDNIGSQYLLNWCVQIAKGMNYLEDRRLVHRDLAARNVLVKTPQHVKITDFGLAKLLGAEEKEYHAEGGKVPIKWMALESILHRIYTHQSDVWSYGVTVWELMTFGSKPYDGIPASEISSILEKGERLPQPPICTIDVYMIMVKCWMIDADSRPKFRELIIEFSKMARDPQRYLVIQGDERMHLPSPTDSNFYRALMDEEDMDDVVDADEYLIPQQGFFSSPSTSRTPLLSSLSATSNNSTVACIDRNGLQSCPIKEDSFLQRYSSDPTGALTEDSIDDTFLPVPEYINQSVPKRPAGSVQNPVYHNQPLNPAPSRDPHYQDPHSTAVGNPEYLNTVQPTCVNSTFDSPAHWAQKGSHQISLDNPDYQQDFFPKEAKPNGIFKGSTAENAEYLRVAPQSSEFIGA

Turning to `Cc1c(F)cccc1Nc1c(-c2ccncc2OCC2CN(C)CCO2)[nH]c2c1C(=O)NCC2` (single isomer, unassigned) [Example 64, 3-(3-fluoro-2-methylanilino)-2-(3-{[4-methylmorpholin-2-yl]methoxy}pyridin-4-yl)-1,5,6,7-tetrahydro-4H-pyrrolo[3,2-c]pyridin-4-one], the “mutEGFR (D770_N771insSVD) kinase assay IC50” value (shortened to “mutEGFR”) in test [1] is 0.187 nM. Also, in test [2] (setting [5]), the IC50 was greater than 20000 nM. Further, the GI50 in test [3] was 7.58 nM; in test [4], 271 nM.

On to `COc1c(Cl)cccc1Nc1c(-c2ccncc2OC(C)C2CN(C)CCO2)[nH]c2c1C(=O)NCC2` (single isomer, unassigned) [Example 75, 3-(3-chloro-2-methoxyanilino)-2-[3-({1-[-4-methylmorpholin-2-yl]ethyl}oxy)pyridin-4-yl]-1,5,6,7-tetrahydro-4H-pyrrolo[3,2-c]pyridin-4-one], for which the “mutEGFR” value in test [1] is 4.99 nM. Also, the IC50 in test [2] (setting [5]) is greater than 20000 nM. Besides, the GI50 in test [3] worked out at 571 nM; in test [4], 3900 nM.

With `COc1c(Cl)cccc1Nc1c(-c2ccncc2O[C@@H](C)C2COCCO2)[nH]c2c1C(=O)NCC2` (mixture of isomers) [Example 57, 3-(3-chloro-2-methoxyanilino)-2-{3-[(1S)-1-(1,4-dioxan-2-yl)ethoxy]pyridin-4-yl}-1,5,6,7-tetrahydro-4H-pyrrolo[3,2-c]pyridin-4-one], the “mutEGFR” value in test [1] is 0.269 nM. In addition, in test [2] (setting [6]), the IC50 stood at 14000 nM. Besides, the GI50 stood at 28 nM in test [3] and 539 nM in test [4].

As to `COc1c(Cl)cccc1Nc1c(-c2ccncc2OC[C@H]2COCCN2C)[nH]c2c1C(=O)NCC2` [Example 11, 3-(3-chloro-2-methoxyanilino)-2-(3-{[(3R)-4-methylmorpholin-3-yl]methoxy}pyridin-4-yl)-1,5,6,7-tetrahydro-4H-pyrrolo[3,2-c]pyridin-4-one], in test [1], the “mutEGFR” value is 0.286 nM. For the same molecule, the IC50 in test [2] (setting [6]) was 4330 nM. The GI50 turned out to be 18.7 nM in test [3] and 701 nM in test [4].

In the case of `COc1c(Cl)cccc1Nc1c(-c2ccncc2OC(C)C2CN(C)CCO2)[nH]c2c1C(=O)NCC2` (centres unmarked) [Example 71, 3-(3-chloro-2-methoxyanilino)-2-[3-({1-[4-methylmorpholin-2-yl]ethyl}oxy)pyridin-4-yl]-1,5,6,7-tetrahydro-4H-pyrrolo[3,2-c]pyridin-4-one], the “mutEGFR” value in test [1] came to 0.405 nM. Besides, in test [2] (setting [6]), the IC50 is greater than 20000 nM. Besides, the GI50 in test [3] was 132 nM; in test [4] it was 1420 nM.

As for `COc1c(F)cccc1Nc1c(-c2ccncc2OC[C@H]2COCCN2C)[nH]c2c1C(=O)NCC2` [Example 37, 3-(3-fluoro-2-methoxyanilino)-2-(3-{[(3R)-4-methylmorpholin-3-yl]methoxy}pyridin-4-yl)-1,5,6,7-tetrahydro-4H-pyrrolo[3,2-c]pyridin-4-one], the “mutEGFR” value in test [1] is 0.4 nM. Besides, the IC50 in test [2] (setting [6]) stood at 19000 nM. In addition, the GI50 in test [3] was determined as 35.7 nM; in test [4] it was 348 nM.

As to `COc1c(F)cccc1Nc1c(-c2ccncc2OCC2CN(C)CCO2)[nH]c2c1C(=O)NCC2` (centres unmarked) [Example 12, 3-(3-fluoro-2-methoxyanilino)-2-{3-[(4-methylmorpholin-2-yl)methoxy]pyridin-4-yl}-1,5,6,7-tetrahydro-4H-pyrrolo[3,2-c]pyridin-4-one], the “mutEGFR” value in test [1] was determined as 0.0794 nM. In addition, in test [2] (setting [6]), the IC50 was greater than 20000 nM. Also, the GI50 in test [3] was found to be 22.8 nM; in test [4], 574 nM.

With `CCc1c(Cl)cccc1Nc1c(-c2ccncc2OC[C@H]2CN(C)CCO2)[nH]c2c1C(=O)NCC2` [Example 55, 3-(3-chloro-2-ethylanilino)-2-(3-{[(2R)-4-methylmorpholin-2-yl]methoxy}pyridin-4-yl)-1,5,6,7-tetrahydro-4H-pyrrolo[3,2-c]pyridin-4-one], in test [1], the “mutEGFR” value is 0.257 nM. Also, in test [2] (setting [6]), the IC50 stood at 7590 nM. The GI50 in test [3] turned out to be 124 nM; in test [4], 1310 nM.

`COc1c(Cl)cc(F)cc1Nc1c(-c2ccncc2OCC2CN(C)CCO2)[nH]c2c1C(=O)NCC2` (centres unmarked) [Example 18, 3-(3-chloro-5-fluoro-2-methoxyanilino)-2-(3-{[4-methylmorpholin-2-yl]methoxy}pyridin-4-yl)-1,5,6,7-tetrahydro-4H-pyrrolo[3,2-c]pyridin-4-one]: the “mutEGFR” value in test [1] amounted to 0.147 nM. Besides, in test [2] (setting [6]), the IC50 is greater than 20000 nM. Further, the GI50 in test [3] turned out to be 27.9 nM; in test [4] it was 579 nM.

As to `Cc1c(F)cccc1Nc1c(-c2ccncc2OCC2CN(C)CCO2)[nH]c2c1C(=O)NCC2` (centres unmarked) [Example 62, 3-(3-fluoro-2-methylanilino)-2-(3-{[4-methylmorpholin-2-yl]methoxy}pyridin-4-yl)-1,5,6,7-tetrahydro-4H-pyrrolo[3,2-c]pyridin-4-one], the “mutEGFR” value in test [1] amounted to 0.237 nM. Moreover, the IC50 in test [2] (setting [6]) is greater than 20000 nM. In addition, the GI50 in test [3] came out at 26.7 nM; in test [4], 697 nM.

Take `CCc1c(F)cccc1Nc1c(-c2ccncc2OCC2COCCO2)[nH]c2c1C(=O)NCC2` (centres unmarked) [Example 65, 2-(3-{[1,4-dioxan-2-yl]methoxy}pyridin-4-yl)-3-(2-ethyl-3-fluoroanilino)-1,5,6,7-tetrahydro-4H-pyrrolo[3,2-c]pyridin-4-one]: in test [1], the “mutEGFR” value was found to be 0.136 nM. The IC50 in test [2] (setting [6]) came to 3580 nM. Moreover, the GI50 in test [3] is 13.4 nM; in test [4], 287 nM.

Turning to `COc1c(Cl)cc(F)cc1Nc1c(-c2ccncc2OC[C@@H]2CN(CC(F)(F)F)CCO2)[nH]c2c1C(=O)NCC2` [Example 28, 3-(3-chloro-5-fluoro-2-methoxyanilino)-2-(3-{[(2S)-4-(2,2,2-trifluoroethyl)morpholin-2-yl]methoxy}pyridin-4-yl)-1,5,6,7-tetrahydro-4H-pyrrolo[3,2-c]pyridin-4-one], the “mutEGFR” value in test [1] was determined as 0.249 nM. In test [2] (setting [6]), this molecule displayed an IC50 greater than 20000 nM. Moreover, the GI50 stood at 126 nM in test [3] and 1240 nM in test [4].

As to `COc1c(Cl)cccc1Nc1c(-c2ccncc2OCCC2COCCO2)[nH]c2c1C(=O)NCC2` (centres unmarked) [Example 24, 3-(3-chloro-2-methoxyanilino)-2-{3-[2-(4-dioxan-2-yl)ethoxy]pyridin-4-yl}-1,5,6,7-tetrahydro-4H-pyrrolo[3,2-c]pyridin-4-one], the “mutEGFR” value in test [1] was 0.261 nM. This molecule had an IC50 in test [2] (setting [6]) of 1940 nM. Moreover, the GI50 worked out at 34.6 nM in test [3] and 444 nM in test [4].

For `CCc1c(Cl)cccc1Nc1c(-c2ccncc2OCC2COCCO2)[nH]c2c1C(=O)NCC2` (centres unmarked) [Example 52, 3-(3-chloro-2-ethyl-anilino)-2-[3-(1,4-dioxan-2-ylmethoxy)-4-pyridyl]-1,5,6,7-tetrahydropyrrolo[3,2-c]pyridin-4-one], the “mutEGFR” value in test [1] was 0.226 nM. Besides, the IC50 in test [2] (setting [6]) worked out at 729 nM. The values for the GI50 in test [3] and in test [4] were 13.4 nM and 547 nM, respectively.
